Assay results taken from patent US8895596B2, “Cyclic benzimidazole derivatives useful as anti-diabetic agents” (Merck Sharp & Dohme Corp, priority 2010, dated 2014).
pEC50: −log10 of the molar value.

Columns and labels:
[1] = target: recombinant human AMPK complex 1 (containing α1β1γ1) (Homo sapiens, UniProt Q13131+Q9Y478); test: in vitro AMPK activation assay (AMPKSAMSF); format: biochemical; conditions: recombinant human AMPK complex 1 (α1β1γ1); for pEC50: table
Experimental: AMPKSAMSF (in vitro AMPK Activation Assay)
The recombinant human AMPK complex 1 (containing α1β1γ1) was obtained from baculovirus expression system. Recombinant viruses were generated by cotransfection of AMPK/pBacPak9 clones with Baculogold baculovirus DNA (Pharmingen) in spodoptera frugiperda 21 cells according to the manufacturer's instructions. Each round of virus amplification was performed for 5 days in Grace's medium containing 10% serum. Virus that had been subjected to three rounds of amplification was used for all protein production procedures. To express the AMPK complex, sf21 cells were adapted to serum free medium (SF900 II, Invitrogen) by sequential dilution from serum containing stocks into SF900II medium and maintained in shaker flasks at 90 rpm at 27° C. The recombinant AMPK enzyme complex was produced by triple infection, one recombinant virus for each of the subunits, in sf21 cells under serum free conditions. Cells were infected in log phase, 1×10^6 cells/ml, at a multiplicity of infection […] were harvested by centrifugation at 10,000×g for 15 minutes after 72 hours of infection with viruses. The insect cell pellet from 2 liters of culture was resuspended in 50 ml lysis buffer (20 mM Tris-HCl, 50 mM NaCl, 50 mM NaF, 30 mM Na PPi, 0.25 M sucrose, 10 mM ZnCl2, 2 mM DTT, 0.4 mg/ml digitonin) and subjected to two cycles of freeze-thaw lysis in a dry-ice ethanol bath. Insoluble material was removed by centrifugation at 10,000×g and the supernatant was fractionated with use of polyethylene glycol (PEG). The protein fraction precipitating between 2.5 and 6% PEG was used for further purification using a Blue-Sepharose step (Zhou et al, J. Clin. Invest. 108, 1167-1174, 2001).
The in vitro AMPK activation assay is performed in a volume of 30 μl in a 384-well plate. Enzyme reactions were assembled in the microtiter plate by adding 15 μl of 2× enzyme in assay buffer (20 mM HEPES, pH 7.3, 5 mM MgCl2, 3 mM DTT, 0.01% Brij 35 and CamK Kinase, to activate AMPK) to wells which contained either DMSO or compound. The reaction was initiated with the addition of […] substrate mixture containing 200 μM ATP, and 3.0 μM fluorescently labeled SAMS (5-FAM-HMRSAMSGLHLVKRR-COOH) in assay buffer. After 45-minute incubation at 25° C., the reaction was stopped by the addition of 70 μl stop buffer (100 mM HEPES, pH 7.3, 40 mM EDTA, 0.015% Brij 35). Phosphorylated 5-FAM SAMS product is assessed using a Caliper EZ Reader LabChip microfluidics reader. Product conversion is determined by calculating the peak heights of the substrate and product and reporting the product/(product+substrate) peak ratio. The 10-point titration data were expressed as maximum AMP activation. The results were plotted using 4 parameter fit and the inflection point reflecting 50% of the maximum activation was reported as the EC50.

ob/ob and db/db mice = conditions: following 8 weeks of administration; cited from earlier work

Chain of recombinant human AMPK complex 1 (containing α1β1γ1) (Q13131 whole entry): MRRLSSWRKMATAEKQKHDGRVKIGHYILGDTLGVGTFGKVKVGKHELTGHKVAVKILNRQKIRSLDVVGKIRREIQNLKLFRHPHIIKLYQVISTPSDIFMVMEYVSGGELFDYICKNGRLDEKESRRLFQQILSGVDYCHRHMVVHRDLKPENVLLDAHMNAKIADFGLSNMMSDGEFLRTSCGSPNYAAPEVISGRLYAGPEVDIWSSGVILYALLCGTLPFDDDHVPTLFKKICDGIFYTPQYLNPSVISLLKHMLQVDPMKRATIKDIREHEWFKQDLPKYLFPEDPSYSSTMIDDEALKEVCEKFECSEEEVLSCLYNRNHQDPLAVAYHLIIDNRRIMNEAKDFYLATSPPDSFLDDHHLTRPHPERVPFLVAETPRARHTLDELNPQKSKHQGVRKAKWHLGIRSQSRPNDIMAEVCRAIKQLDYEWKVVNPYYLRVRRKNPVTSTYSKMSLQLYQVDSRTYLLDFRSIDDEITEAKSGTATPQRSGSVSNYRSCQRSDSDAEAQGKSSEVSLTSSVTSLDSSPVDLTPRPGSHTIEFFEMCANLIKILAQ
Chain of recombinant human AMPK complex 1 (containing α1β1γ1) (Q9Y478 whole entry): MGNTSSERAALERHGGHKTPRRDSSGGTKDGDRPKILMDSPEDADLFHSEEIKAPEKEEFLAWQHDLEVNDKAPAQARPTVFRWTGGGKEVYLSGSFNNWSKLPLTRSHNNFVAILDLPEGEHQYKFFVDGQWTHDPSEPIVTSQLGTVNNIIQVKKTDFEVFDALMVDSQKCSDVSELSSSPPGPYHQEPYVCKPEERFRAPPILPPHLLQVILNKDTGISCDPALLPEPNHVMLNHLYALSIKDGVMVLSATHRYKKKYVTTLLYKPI
Chain of recombinant human AMPK complex 1 (containing α1β1γ1) (P54619 whole entry partner): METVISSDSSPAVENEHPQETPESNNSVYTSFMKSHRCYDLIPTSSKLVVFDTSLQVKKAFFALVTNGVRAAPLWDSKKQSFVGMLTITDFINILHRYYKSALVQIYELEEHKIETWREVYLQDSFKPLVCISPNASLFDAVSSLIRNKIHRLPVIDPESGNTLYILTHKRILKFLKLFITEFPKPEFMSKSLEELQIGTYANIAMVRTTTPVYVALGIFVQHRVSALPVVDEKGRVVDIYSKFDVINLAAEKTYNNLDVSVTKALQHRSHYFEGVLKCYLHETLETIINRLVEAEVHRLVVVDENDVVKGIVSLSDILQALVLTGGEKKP

Compound | % Maximum AMP Activation of human AMPK Complex 1 [1] | pEC50 [1] | blood glucose reduction (ob/ob and db/db mice)
O=C(O)C1CCC(Oc2nc3c(F)c(-c4ccc(-c5ccc(C(=O)N6CCC(O)CC6)cc5)cc4)c(F)cc3[nH]2)CC1 (single isomer, unassigned) [Example 20, 4-[(4,6-difluoro-5-{4′-[(4-hydroxypiperidin-1-yl)carbonyl]biphenyl-4-yl}-1H-benzimidazol-2-yl)oxy]cyclohexanecarboxylic acid] | 642% | 8.00 | –
NC(=O)c1ncn([C@@H]2O[C@H](CO)[C@@H](O)[C@H]2O)c1N [AICAR] | – | – | 35%
O=C(O)C1CCC(Oc2nc3c(F)c(-c4ccc(-c5ccccc5)cc4)c(F)cc3[nH]2)CC1 (stereo not drawn) [Example 15, 4-{[5-(biphenyl-4-yl)-4,6-difluoro-1H-benzimidazol-2-yl]oxy}-cyclohexane carboxylic acid] | 653% | 8.00 | –
O=C(O)C1CCCC(Oc2nc3c(F)c(-c4ccc(-c5ccccc5)cc4)c(F)cc3[nH]2)C1 (stereo not drawn) [Example 16, 3-{[5-(biphenyl-4-yl)-4,6-difluoro-1H-benzimidazol-2-yl]oxy}cyclohexanecarboxylic acid] | 617% | 8.22 | –
O=C(O)C1CCC(Oc2nc3c(F)c(-c4ccc(-c5ccccc5)cc4)c(F)cc3[nH]2)C1 (stereo not drawn) [Example 17, 3-{[5-(biphenyl-4-yl)-4,6-difluoro-1H-benzimidazol-2-yl]oxy}cyclopentanecarboxylic acid] | 593% | 7.89 | –
O=C(O)C1CC(Oc2nc3c(F)c(-c4ccc(-c5ccccc5)cc4)c(F)cc3[nH]2)C1 (stereo not drawn) [Example 18, 3-{[5-(biphenyl-4-yl)-4,6-difluoro-1H-benzimidazol-2-yl]oxy}cyclobutanecarboxylic acid] | 538% | 7.85 | –
O=C(O)C1CC1COc1nc2c(F)c(-c3ccc(-c4ccccc4)cc3)c(F)cc2[nH]1 (stereo not drawn) [Example 19, 2-({[5-(biphenyl-4-yl)-4,6-difluoro-1H-benzimidazol-2-yl]oxy}methyl)cyclopropane-carboxylic acid] | 631% | 7.77 | –
O=C(O)C1CCC(Oc2nc3c(F)c(-c4ccc5c(ccn5C5CC5)c4)c(F)cc3[nH]2)CC1 (stereo not drawn) [Example 21, 4-{[5-(1-Cyclopropyl-1H-indol-5-yl)-4,6-difluoro-1H-benzimidazol-2-yl]oxy}cyclohexanecarboxylic acid] | 504% | 8.40 | –
